Reference: ChEMBL document CHEMBL5050844 (2019)

Assays:
[1] = Induction of anti-CD3/CD28 antibodies-stimulated human T cell activation at 1 uM assessed fold increase in CD25 expression measured by ELISA assay; format: functional, T cell line
[2] = Induction of anti-CD3 antibodies-stimulated human T cell activation at 8 uM assessed fold increase in IL-2 secretion measured by ELISA assay; format: functional, T cell line
[3] = Induction of anti-CD3 antibodies-stimulated human T cell activation at 1 uM assessed fold increase in CD25 expression measured by ELISA assay; format: functional, T cell line
[4] = biological target: E3 ubiquitin-protein ligase CBL-B (Homo sapiens, UniProt Q13191); test: Inhibition of N-terminal Avi-tagged human CBL-B (36 to 427 residues) incubated with 60 nM Src kinase for 1.5 hrs followed by incubation with fluorescently labeled UbcH5B-Ub for 1 hr and measured by TR-FRET assay; format: single protein
[5] = Induction of anti-CD3/CD28 antibodies-stimulated human T cell activation at 0.3 uM assessed fold increase in IL-2 secretion measured by ELISA assay; format: functional, T cell line
[6] = Induction of anti-CD3/CD28 antibodies-stimulated human T cell activation at 0.3 uM assessed fold increase in CD25 expression measured by ELISA assay; format: functional, T cell line
[7] = Induction of anti-CD3 antibodies-stimulated human T cell activation at 8 uM assessed fold increase in CD25 expression measured by ELISA assay; format: functional, T cell line
[8] = Induction of anti-CD3 antibodies-stimulated human T cell activation at 1 uM assessed fold increase in IL-2 secretion measured by ELISA assay; format: functional, T cell line
[9] = Induction of anti-CD3/CD28 antibodies-stimulated human T cell activation at 1 uM assessed fold increase in IL-2 secretion measured by ELISA assay; format: functional, T cell line
[10] = Induction of anti-CD3/CD28 antibodies-stimulated human T cell activation at 4 uM assessed fold increase in IL-2 secretion measured by ELISA assay; format: functional, T cell line
[11] = Induction of anti-CD3/CD28 antibodies-stimulated human T cell activation at 4 uM assessed fold increase in CD25 expression measured by ELISA assay; format: functional, T cell line

E3 ubiquitin-protein ligase CBL-B, sequence (Q13191 whole entry, the tested form may be a part): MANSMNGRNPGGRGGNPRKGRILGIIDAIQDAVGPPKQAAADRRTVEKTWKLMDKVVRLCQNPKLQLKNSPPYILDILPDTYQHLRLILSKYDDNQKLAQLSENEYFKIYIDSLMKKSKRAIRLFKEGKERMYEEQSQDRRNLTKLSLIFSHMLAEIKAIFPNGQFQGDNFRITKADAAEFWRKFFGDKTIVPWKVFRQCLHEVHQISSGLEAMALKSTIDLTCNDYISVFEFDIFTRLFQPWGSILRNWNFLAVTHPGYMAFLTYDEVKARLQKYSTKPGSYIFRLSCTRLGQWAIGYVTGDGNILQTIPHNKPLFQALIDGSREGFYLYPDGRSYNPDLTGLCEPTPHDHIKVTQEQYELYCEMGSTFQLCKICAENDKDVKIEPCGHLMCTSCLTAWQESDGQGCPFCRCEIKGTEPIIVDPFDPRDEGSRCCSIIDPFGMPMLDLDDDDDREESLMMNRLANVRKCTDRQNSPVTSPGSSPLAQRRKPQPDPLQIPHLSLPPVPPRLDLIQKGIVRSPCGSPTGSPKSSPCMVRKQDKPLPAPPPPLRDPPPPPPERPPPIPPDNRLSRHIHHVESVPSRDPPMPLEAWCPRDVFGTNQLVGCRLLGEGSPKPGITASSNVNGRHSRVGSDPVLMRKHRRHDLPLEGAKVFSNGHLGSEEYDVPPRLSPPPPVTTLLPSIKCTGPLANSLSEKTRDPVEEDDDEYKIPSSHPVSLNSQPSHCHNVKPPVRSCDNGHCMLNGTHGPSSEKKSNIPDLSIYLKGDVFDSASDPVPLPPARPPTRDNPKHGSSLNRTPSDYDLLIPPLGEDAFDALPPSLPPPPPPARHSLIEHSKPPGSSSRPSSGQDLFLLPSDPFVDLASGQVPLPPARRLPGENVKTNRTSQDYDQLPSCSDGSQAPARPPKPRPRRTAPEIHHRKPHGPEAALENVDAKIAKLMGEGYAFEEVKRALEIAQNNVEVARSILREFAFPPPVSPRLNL

Structure (SMILES) | IC50 [4] | fold change (FC) [1] | fold change (FC) [2] | fold change (FC) [3] | fold change (FC) [5] | fold change (FC) [6] | fold change (FC) [7] | fold change (FC) [8] | fold change (FC) [9] | fold change (FC) [10] | fold change (FC) [11]
Cn1cnnc1C(F)(F)[C@](C)(F)c1cccc(N2Cc3c(cc(CN4CC(C(F)F)C4)cc3C(F)(F)F)C2=O)c1 | < 100 nM | 1.31 | 0.151 | >=1.001 | 5 | 1.31 | >=1.001 | >=0.201 | >=7.5 | >=7.5 | 1.31
C[C@H](Cc1nncn1C)c1cccc(N2Cc3c(cc(C(=O)N4CC[C@H](O)C4)cc3C3CC3)C2=O)c1 | < 100 nM | 1.01 | 0.101 | 0.801 | 1.01 | 1.01 | >=1.001 | 0.051 | 2.51 | 2.51 | 1.31
Cc1cc(C(=O)Nc2cccc([C@H](C)Cc3nncn3C)c2)nc(C(F)(F)F)n1 | < 100 nM | 1.51 | >=0.201 | 0.801 | 2.51 | 1.01 | >=1.001 | >=0.201 | >=7.5 | >=7.5 | >=1.76
C[C@H](Cc1nncn1C)c1cccc(NC(=O)c2cc(O[C@@H]3CC[C@@H](O)C3)ccn2)c1 (relative stereo) | < 100 nM | 1.01 | 0.101 | 0.801 | 2.51 | 1.01 | >=1.001 | 0.051 | 2.51 | 5 | 1.31
C[C@@H]1CN(C)CCN1c1cc2c(c(C(F)(F)F)c1)CN(c1cccc([C@@](C)(F)C(F)(F)c3nncn3C)c1)C2=O | < 100 nM | 1.01 | 0.101 | 0.801 | 1.01 | 1.01 | >=1.001 | <=0.05 | 1.01 | 2.51 | 1.31

More lines, main results first:

IC50 [4] | Structure (SMILES) | fold change (FC) [1] | fold change (FC) [2] | fold change (FC) [3] | fold change (FC) [5] | fold change (FC) [6] | fold change (FC) [7] | fold change (FC) [8] | fold change (FC) [9] | fold change (FC) [10] | fold change (FC) [11]
< 100 nM | CC(=O)N1CCN(c2ccc3cnc(C(=O)Nc4cccc([C@H](C)Cc5nncn5C)c4)cc3c2)CC1.O=C(O)C(F)(F)F | 1.01 | >=0.201 | 0.601 | 2.51 | 1.01 | >=1.001 | >=0.201 | 5 | >=7.5 | 1.51
< 100 nM | C[C@H](c1cc2c(c(C(F)(F)F)c1)CN(c1cccc([C@@](C)(F)C(F)(F)c3nncn3C)c1)C2=O)N1CC[C@H](F)C1 | 1.31 | >=0.201 | >=1.001 | 2.51 | 1.01 | >=1.001 | >=0.201 | >=7.5 | >=7.5 | 1.51
< 100 nM | Cn1cnnc1CC1(c2cccc(NC(=O)c3cc(C4CC4)nc(C4CC4)n3)c2)COC1 | 1.01 | >=0.201 | >=1.001 | 2.51 | 1.01 | >=1.001 | 0.151 | >=7.5 | >=7.5 | 1.31
< 100 nM | C[C@H](Cc1nncn1C)c1cccc(NC(=O)c2cccc(C(C)(C)C)n2)c1 | 1.01 | >=0.201 | 0.801 | 1.01 | 1.01 | >=1.001 | 0.051 | 2.51 | 2.51 | 1.01
< 100 nM | C[C@H](Cc1nncn1C)c1cccc(NC(=O)c2ccnc3ccnn23)c1 | 1.01 | 0.101 | 0.801 | 1.01 | 1.01 | >=1.001 | 0.051 | 1.01 | 2.51 | 1.01
